Data set [1] concerns geranylgeranyltransferase I. Kind of data set: Inhibition of geranylgeranyltransferase I (glass fiber filter binding assay, H-Ras-CVLL, 3H-GGPP). It counts as biochemical, bovine. The conditions noted are these: for Activity: % inhibition at 1 × 10^−7 M: compound at 1 × 10^−7 M (Table 5); for Activity: % inhibition at 1 × 10^−6 M: compound at 1 × 10^−6 M (Table 5); for Activity: % inhibition at 1 × 10^−5 M: compound at 1 × 10^−5 M (Table 5). The text has this: The ability of the compounds of the invention to inhibit protein farnesyltransferase or protein geranylgeranyltransferase can be measured according to the method of Moores, et al., J. Biol. Chem. 266: 14603 (1991) or the method of Vogt, et al., J. Biol. Chem. 270:660-664 (1995). In addition, procedures for determination of the inhibition of farnesylation of the oncogene protein Ras are described by Goldstein, et al., J. Biol. Chem., 266:15575-15578 (1991) and by Singh in U.S. Pat. No. 5,245,061.
Additional methods for the measurement of in vitro inhibition of protein prenylation (i.e., inhibition of farnesyltransferase or geranylgeranyltransferase) are described below.
Assays are performed using the glass fiber filter binding assay procedure with either rabbit reticulocyte lysate or Frase or GGTase I fractions isolated from bovine brains using a combination of hydrophobic and DEAE column chromatography procedures. Protein substrates are purchased from Panvera Corporation (H-ras for FTase, H-ras-CVLL for GGTase I). Tritium labeled prenyl lipid substrates (FPP or GGPP) are obtained from Amersham Life Science.
^3H-geranylgeranyldiphosphate (final concentration 0.5 μM), H-Ras-CVLL (final concentration 5.0 μM) and the test compound (various final concentrations from a stock solution in 1:1 DMSO/water; final concentration DMSO <2%) were mixed in buffer (50 mM Tris-HCl (pH 7.2), 30 mM MgCl2, 20 mM KCl, 10 μM ZnCl2, 5 mM DTT, 0.01% Triton X-100) to give a final volume of 50 μL. The mixture was brought to 37° C., treated with enzyme, and incubated for 30 minutes. 1 mL of 1 M HCl/ethanol was added to stop the reaction, and the mixture was allowed to stand for 15 minutes at room temperature then diluted with 2 mL of ethanol. The reaction mixture was filtered through a 2.5 cm glass microfiber filter from Whatman and washed with four 2 mL portions of ethanol. The glass filter was transferred to a scintillation vial, and 5 mL scintillation fluid was added. The radioisotope retained on the glass fiber filter was counted to reflect the activity of the enzymes. The IC50 value was calculated by measuring the activity of the enzyme over a suitable range of inhibitor concentrations.

Data set [2] addresses T1, Rat brain protein farnesyltransferase (Rattus norvegicus, UniProt Q02293+Q04631).
T1 construct: The enzyme is purified according to Reiss, Y., et al., Cell, 62: 81-88 (1990), utilizing steps one through three; from tissue; host or cells: rat brain
Kind of data set: In vitro inhibition of protein farnesyltransferase, Amersham scintillation proximity assay with biotin-K Ras B fragment. It counts as biochemical. The conditions noted are these: Inhibition of farnesyltransferase; for inhibition at 10 µM: compound at 1 × 10^−5 M (Table 1); for inhibition at 1 µM: compound at 1 × 10^−6 M (Table 2), read-out: % inhibition at 1 × 10^−6 M.

Here are results for 9 compounds from patent publication US6693123B2 (University of Pittsburgh, priority 1995, dated 2004).

Each structure is given as a SMILES string. Structures can show the parent of a compound that is named as a salt. A value given as a limit tells only on which side of the number the result lay.

In general, inhibition refers to the change of the read-out against control, counted positive when it falls. Turning to `CC(C)C[C@H](NC(=O)c1ccc(CNCc2c[nH]cn2)cc1-c1cccc2ccccc12)C(=O)O` [Example 955, N-[4-(Imidazol-4-ylmethylaminomethyl)-2-naphth-1-ylbenzoyl]leucine], the “Activity: % inhibition at 1 × 10^−7 M” value in data set [1] was >50% inhibition at 1 × 10^−7 M. For the same compound, the inhibition at 10 µM in data set [2] was determined as 50%.

For orientation: melting point means the temperature, or range, at which the solid turns liquid. `CC(C)C[C@H](NC(=O)c1ccc(NCc2ncc[nH]2)cc1-c1ccccc1)C(=O)O` [Example 953, N-[4-(Imidazol-2-ylmethylamino)-2-phenylbenzoyl]leucine]: the melting point fell in the range of 156 to 160 °C. For the same compound, in data set [1], the “Activity: % inhibition at 1 × 10^−6 M” value is given as >50% inhibition at 1 × 10^−6 M.

On to `Cc1cc(C)cc(-c2cc(NCc3cnc[nH]3)ccc2C(=O)N[C@@H](CC(C)C)C(=O)O)c1` [Example 399], for which the “Activity: % inhibition at 1 × 10^−6 M” value in data set [1] was >50% inhibition at 1 × 10^−6 M. For the same compound, the inhibition at 1 µM in data set [2] is > 50%.

Turning to `CC(C)C[C@H](NC(=O)c1ccc(OCCn2ccnc2)cc1-c1ccccc1)C(=O)O` [Example 964, N-[4-(2-Imidazol-1-ylethoxy)-2-phenylbenzoyl]leucine], the “Activity: % inhibition at 1 × 10^−6 M” value in data set [1] is >50% inhibition at 1 × 10^−6 M. Moreover, in data set [2], the inhibition at 1 µM was > 50%.

The compound `CSCC[C@H](NC(=O)c1ccc(COc2cccnc2)cc1Oc1ccccc1)C(=O)O` [Example 157, [4-(3-Pyridyloxymethylene)-2-phenoxybenzoyl]methionine] returned a melting point of 195 °C. The inhibition at 1 µM in data set [2] stood at 92%.

On to `CC(C)C[C@H](NC(=O)c1ccc(NCc2ccncc2)cc1-c1cccc2ccccc12)C(=O)O` [Example 969, N-[4-(Pyrid-4-ylmethylamino)-2-naphth-1-ylbenzoyl]leucine], for which, in data set [1], the “Activity: % inhibition at 1 × 10^−5 M” value is >50% inhibition at 1 × 10^−5 M.

As for `O=C(N[C@@H](CC1CCCCC1)C(=O)O)c1ccc(NCc2c[nH]cn2)cc1-c1cccc2ccccc12` [Example 974, N-[4-(Imidazol-4-ylmethylamino)-2-naphth-1-ylbenzoyl]cyclohexyalanine], in data set [1], the “Activity: % inhibition at 1 × 10^−5 M” value is >50% inhibition at 1 × 10^−5 M. Further, the inhibition at 10 µM in data set [2] is > 50%.

Regarding `Cc1ccccc1-c1cc(NCc2c[nH]cn2)ccc1C(=O)N[C@@H](CC(C)C)C(=O)O` [Example 962, N-[4-(Imidazol-4-ylmethylamino)-2-(2-methylphenyl)benzoyl]leucine Hydrochloride], the “Activity: % inhibition at 1 × 10^−7 M” value in data set [1] is given as >50% inhibition at 1 × 10^−7 M. In addition, in data set [2], the inhibition at 1 µM was > 50%.

`CC(C)C[C@H](NC(=O)c1ccc(NCc2ncc[nH]2)cc1-c1cccc2ccccc12)C(=O)O` [Example 966, N-[4-(Imidazol-2-ylmethylamino)-2-naphth-1-ylbenzoyl]leucine]: the “Activity: % inhibition at 1 × 10^−6 M” value in data set [1] is >50% inhibition at 1 × 10^−6 M.
